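Briefly, cells in 96-well plates were exposed to five compound concentrations for 48 h, and endpoints were estimated by linear interpolation. GI50 is the concentration that inhibits growth by half.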 Activity calls are given as the source filed them. No stated cut-off is given here; in the data, active = GI50 up to about 1.1 µM and inactive = higher.
Tests used:
Assay in all cases: NCI anticancer screen, dose series, 48 h
[1] = tested on: TK-10
[2] = tested on: SK-MEL-28
[3] = tested on: K562
[4] = tested on: RXF 393
[5] = tested on: OVCAR-5
[6] = tested on: NCI-H460
[7] = tested on: MDA-N
[8] = tested on: NCI-H226
[9] = tested on: A498
[10] = tested on: T47D
[11] = tested on: U-251
[12] = tested on: NCI-H522
[13] = tested on: PC-3
[14] = tested on: HT-29
[15] = tested on: SW-620
[16] = tested on: SN12C
[17] = tested on: M14
[18] = tested on: OVCAR-3
[19] = tested on: HCT-116

| Structure (SMILES) | GI50 [1] | GI50 [2] | GI50 [3] | GI50 [4] | GI50 [5] | GI50 [6] | GI50 [7] | GI50 [8] | GI50 [9] | GI50 [10] | GI50 [11] | GI50 [12] | GI50 [13] | GI50 [14] | GI50 [15] | GI50 [16] | GI50 [17] | GI50 [18] | GI50 [19] |
| --- | --- | --- | --- | --- | --- | --- | --- | --- | --- | --- | --- | --- | --- | --- | --- | --- | --- | --- | --- |
| CCCOc1cc2c(cc1O)CC[C@@H]1[C@@H]2CC[C@]2(C)[C@@H](O)CC[C@@H]12 | 7.5 µM (inactive) | 8.26 µM (inactive) | 0.209 µM (active) | 2.25 µM (inactive) | 27.4 µM (inactive) | 1.62 µM (inactive) | 0.22 µM (active) | 5.97 µM (inactive) | 5.37 µM (inactive) | 3.19 µM (inactive) | 1.87 µM (inactive) | 0.383 µM (active) | 4.76 µM (inactive) | 7.57 µM (inactive) | 1 µM (active) | 4.97 µM (inactive) | 1.8 µM (inactive) | 1.55 µM (inactive) | 1.64 µM (inactive) |
| Cn1c(-c2cccs2)cc(-c2ccsc2)c1-c1ccsc1 | > 100 µM (inactive) | > 100 µM (inactive) | > 100 µM (inactive) | > 100 µM (inactive) | > 100 µM (inactive) | > 100 µM (inactive) | > 100 µM (inactive) | > 100 µM (inactive) | > 100 µM (inactive) | 1.81 µM (inactive) | > 100 µM (inactive) | > 100 µM (inactive) | > 100 µM (inactive) | 93.5 µM (inactive) | > 100 µM (inactive) | > 100 µM (inactive) | > 100 µM (inactive) | > 100 µM (inactive) | 64.1 µM (inactive) |
| Cn1cco/c1=N/c1ccc(Cl)c(Cl)c1 | > 10 µM (inactive) | > 10 µM (inactive) | > 10 µM (inactive) |  | > 10 µM (inactive) | > 10 µM (inactive) | > 10 µM (inactive) | > 10 µM (inactive) | > 10 µM (inactive) | > 10 µM (inactive) | > 10 µM (inactive) | > 10 µM (inactive) | > 10 µM (inactive) | > 10 µM (inactive) | > 10 µM (inactive) | > 10 µM (inactive) | > 10 µM (inactive) | > 10 µM (inactive) | > 10 µM (inactive) |
| CCO/C=N\C1=C(C#N)SC2=N/C(=C\c3ccco3)C(=O)N21 | > 100 µM (inactive) | > 100 µM (inactive) | > 100 µM (inactive) | > 100 µM (inactive) | > 100 µM (inactive) |  | > 100 µM (inactive) | > 100 µM (inactive) | > 100 µM (inactive) | > 100 µM (inactive) | > 100 µM (inactive) | > 100 µM (inactive) | > 100 µM (inactive) | > 100 µM (inactive) | > 100 µM (inactive) | > 100 µM (inactive) | > 100 µM (inactive) | > 100 µM (inactive) | > 100 µM (inactive) |
| COc1cc(C2SC(=N)Nc3c2c(C)nn3C(=O)c2ccccc2O)cc(OC)c1OC (centres undefined) | > 10 µM (inactive) | > 10 µM (inactive) | 2.81 µM (inactive) | 8.51 µM (inactive) | > 10 µM (inactive) | 7.41 µM (inactive) | 6.14 µM (inactive) | > 10 µM (inactive) | 5 µM (inactive) | 3.26 µM (inactive) | 6.76 µM (inactive) |  | 5.48 µM (inactive) | > 10 µM (inactive) | > 10 µM (inactive) | 9.18 µM (inactive) | 5.92 µM (inactive) | > 10 µM (inactive) | 1.59 µM (inactive) |
| CC[S+]([O-])C(=O)N(O)c1ccc(Cl)cc1 (centres undefined) | 35.8 µM (inactive) | 17.4 µM (inactive) | 16.2 µM (inactive) | 19.7 µM (inactive) | 17.7 µM (inactive) |  | 20 µM (inactive) | 84.1 µM (inactive) | 56.4 µM (inactive) | 31.3 µM (inactive) | 19.4 µM (inactive) |  | 37.4 µM (inactive) |  | 18 µM (inactive) | 22.3 µM (inactive) | 12.8 µM (inactive) | 31.6 µM (inactive) | 24.4 µM (inactive) |
| Cc1sc2nc(N(C)C)oc(=O)c2c1C | > 100 µM (inactive) | > 100 µM (inactive) | 63.4 µM (inactive) | 25 µM (inactive) | > 100 µM (inactive) | > 100 µM (inactive) | > 100 µM (inactive) | > 100 µM (inactive) | 81.3 µM (inactive) | 58.7 µM (inactive) | > 100 µM (inactive) | 30.8 µM (inactive) | 63.1 µM (inactive) | > 100 µM (inactive) | > 100 µM (inactive) | 86.1 µM (inactive) | > 100 µM (inactive) |  | > 100 µM (inactive) |
| CC(C)Oc1c(C2(c3ccccc3O)SCCCS2)c(=O)c1=O | > 100 µM (inactive) | > 100 µM (inactive) |  | 75.9 µM (inactive) | 38.7 µM (inactive) | > 100 µM (inactive) | > 100 µM (inactive) | 63.5 µM (inactive) | 62.8 µM (inactive) | 38.9 µM (inactive) | > 100 µM (inactive) | 23.6 µM (inactive) | > 100 µM (inactive) | > 100 µM (inactive) | > 100 µM (inactive) | > 100 µM (inactive) | > 100 µM (inactive) | 79.3 µM (inactive) | > 100 µM (inactive) |
| C[C@H](C/C=C/C(C)(C)O)[C@H]1CC[C@@]2(C)[C@@H]3CC[C@H]4C(C)(C)[C@@H](O)CC[C@@]45C[C@@]35CC[C@]12C | 13 µM (inactive) | 18.8 µM (inactive) | 6.31 µM (inactive) |  | 14.4 µM (inactive) | 23 µM (inactive) | 34.1 µM (inactive) | 17.1 µM (inactive) | 21 µM (inactive) | 27 µM (inactive) | 17.4 µM (inactive) | 2.37 µM (inactive) | 26.3 µM (inactive) | 26 µM (inactive) | 18.4 µM (inactive) | 13 µM (inactive) | 17.8 µM (inactive) | 50.5 µM (inactive) | 18.2 µM (inactive) |
| COc1cc(OCCN(C)C)c2[nH]c(C(=O)N3CC(CCl)c4c3cc(N)c3ccccc43)cc2c1 (centres undefined) | < 0.01 µM (active) | < 0.01 µM (active) |  | < 0.01 µM (active) | < 0.01 µM (active) | < 0.01 µM (active) | < 0.01 µM (active) | < 0.01 µM (active) | < 0.01 µM (active) | 0.0139 µM (active) | < 0.01 µM (active) | < 0.01 µM (active) | < 0.01 µM (active) | < 0.01 µM (active) | < 0.01 µM (active) | < 0.01 µM (active) | < 0.01 µM (active) | < 0.01 µM (active) | < 0.01 µM (active) |
| Nc1nc(Nc2ccc(Cl)cc2)sc1C(=O)c1c[nH]c2ccccc12 | 13 µM (inactive) | 15.4 µM (inactive) | 6.18 µM (inactive) | 9.27 µM (inactive) | 21.1 µM (inactive) | 6.92 µM (inactive) | 12.4 µM (inactive) | 19.3 µM (inactive) | 7.94 µM (inactive) | 8.32 µM (inactive) | 12.2 µM (inactive) |  | 14 µM (inactive) | 6.78 µM (inactive) | 15.7 µM (inactive) | 15.5 µM (inactive) | 11.2 µM (inactive) | 13.8 µM (inactive) | 11.1 µM (inactive) |
| Cc1nn(CNc2ccc(F)c(Cl)c2)c(=S)n1/N=C/c1ccc(-c2ccc(Cl)cc2Cl)o1 | 15.3 µM (inactive) | 19.7 µM (inactive) | 1.49 µM (inactive) | 17.9 µM (inactive) | 19.1 µM (inactive) | 17.1 µM (inactive) | 17.7 µM (inactive) | 17.2 µM (inactive) | 15.1 µM (inactive) | 18.5 µM (inactive) | 14.7 µM (inactive) | 14.4 µM (inactive) | 16.4 µM (inactive) | 19.6 µM (inactive) | 15.6 µM (inactive) |  | 18.7 µM (inactive) | 17.3 µM (inactive) | 15.7 µM (inactive) |
| CC1(C)OCC2OC3([C@H](O)CCO)OC(C)(C)OC3C2O1 (some centres undefined) |  | > 100 µM (inactive) | > 100 µM (inactive) | > 100 µM (inactive) | > 100 µM (inactive) | > 100 µM (inactive) | > 100 µM (inactive) | > 100 µM (inactive) | > 100 µM (inactive) | > 100 µM (inactive) | > 100 µM (inactive) |  | > 100 µM (inactive) | > 100 µM (inactive) | > 100 µM (inactive) | > 100 µM (inactive) | > 100 µM (inactive) | > 100 µM (inactive) | > 100 µM (inactive) |
| O=C(O)C1CCCCC1c1c2ccc(=O)cc-2oc2cc(O)ccc12 (centres undefined) | 52.1 µM (inactive) | 35.6 µM (inactive) | 14.1 µM (inactive) | 18.7 µM (inactive) | 29.4 µM (inactive) | 32.4 µM (inactive) | 21.6 µM (inactive) |  | 37.8 µM (inactive) | 19.1 µM (inactive) | 30.5 µM (inactive) | 17.7 µM (inactive) | 28.8 µM (inactive) | 29.3 µM (inactive) | 44.9 µM (inactive) | 41.7 µM (inactive) | 26.1 µM (inactive) | 24.4 µM (inactive) | 31 µM (inactive) |
| Oc1ccc2ccccc2c1/C=N/Cc1c(O)ccc2ccccc12 | 70.5 µM (inactive) | > 100 µM (inactive) | 18.5 µM (inactive) | 1.39 µM (inactive) | > 100 µM (inactive) | 28.1 µM (inactive) | 51.1 µM (inactive) |  | 26.1 µM (inactive) | 19.1 µM (inactive) | 29 µM (inactive) | 6.53 µM (inactive) | 38.7 µM (inactive) | > 100 µM (inactive) | 52.4 µM (inactive) | 32.8 µM (inactive) | 44.5 µM (inactive) | 18.4 µM (inactive) | 28.3 µM (inactive) |

From ChEMBL document CHEMBL1201862, “PubChem BioAssay data set” (2004)
